Source: US9777005B2 (Takeda Pharmaceutical Company Limited, priority 2012, dated 2017)

Target: T1, human M1 receptor (hCHRM1) (Homo sapiens, UniProt P11229)
T1 construct: expressed in transfected cells; host or cells: CHO-K1
T1 sequence (P11229 1-460): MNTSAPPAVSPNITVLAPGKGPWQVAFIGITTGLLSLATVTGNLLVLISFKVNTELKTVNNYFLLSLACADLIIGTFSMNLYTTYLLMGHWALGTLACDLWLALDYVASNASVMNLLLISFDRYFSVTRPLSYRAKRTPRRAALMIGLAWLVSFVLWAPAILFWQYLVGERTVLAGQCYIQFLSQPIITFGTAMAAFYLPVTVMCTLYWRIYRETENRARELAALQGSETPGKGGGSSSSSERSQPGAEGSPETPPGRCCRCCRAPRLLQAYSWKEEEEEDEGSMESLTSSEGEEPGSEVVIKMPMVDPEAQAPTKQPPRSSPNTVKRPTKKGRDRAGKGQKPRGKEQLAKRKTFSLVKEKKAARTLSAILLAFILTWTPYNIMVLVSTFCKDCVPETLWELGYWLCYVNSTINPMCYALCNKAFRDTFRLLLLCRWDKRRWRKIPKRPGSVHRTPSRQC
Test: Measurement of M1 receptor positive allosteric modulator (M1PAM) activity, calcium fluorescence (FLIPRtetra) in CHO-K1 cells in the presence of acetylcholine at EC20
Format: cell-based
Settings: in the presence of acetylcholine at EC20 (final 0.6 nM), CHO-K1 cells expressing hCHRM1; for EC50: inflection point of M1PAM activity, read-out: IP value; for activity (%) at 10 μM: test compound 10 μM
How it was run: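 CHO-K1 cells expressing human M1 were loaded with Fluo-4 AM, and compound was added with acetylcholine at EC20 (final 0.6 nM). Calcium fluorescence was read on FLIPRtetra for 1 min. Activity was normalized to 1 μM acetylcholine (100%) and DMSO (0%), and the curve inflection point was reported as IP.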

Structure (SMILES) | EC50 | activity (%) at 10 μM
Cc1nn(C)cc1-c1ccc(CN2Cc3ccnc(OCCn4cccn4)c3C2=O)cc1 [Example 225, 2-(4-(1,3-dimethyl-1H-pyrazol-4-yl)benzyl)-4-(2-(1H-pyrazol-1-yl)ethoxy)-1,2-dihydro-3H-pyrrolo[3,4-c]pyridin-3-one] | 51 nM | 104%
O=C1c2c(cccc2O[C@H]2CCCC[C@@H]2O)CN1Cc1ccc(-c2cn[nH]c2)cc1 (relative stereo) [Example 26, 7-((trans-2-hydroxycyclohexyl)oxy)-2-(4-(1H-pyrazol-4-yl)benzyl)isoindolin-1-one] | 4.1 nM | 96%
O=C1c2c(cccc2OCC2CCCO2)CN1Cc1ccc(-n2cccn2)cc1 (stereo not drawn) [Example 53, 2-(4-(1H-pyrazol-1-yl)benzyl)-7-((tetrahydrofuran-2-yl)methoxy)isoindolin-1-one] | 270 nM | 90%
Cc1ccn(-c2ccc(CN3Cc4cccc(O[C@H]5CCC[C@@H]5O)c4C3=O)cc2)n1 (relative stereo) [Example 40, 7-((trans-2-hydroxycyclopentyl)oxy)-2-(4-(3-methyl-1H-pyrazol-1-yl)benzyl)isoindolin-1-one] | 64 nM | 117%
Cc1cc(-c2ccc(CN3Cc4ccnc(O[C@@H]5CCC[C@H]5O)c4C3=O)cc2)ccn1 (single isomer, unassigned) [Example 243, 4-((trans-2-hydroxycyclopentyl)oxy)-2-(4-(2-methylpyridin-4-yl)benzyl)-1,2-dihydro-3H-pyrrolo[3,4-c]pyridin-3-one] | 37 nM | 104%
O=C1c2c(cccc2O[C@@H]2CCOC[C@H]2O)CN1Cc1ccc(F)cc1F (single isomer, unassigned) [Example 299, 1,5-anhydro-2-deoxy-3-O-(2-(2,4-difluorobenzyl)-3-oxo-2,3-dihydro-1H-isoindol-4-yl)-threo-pentitol] | 18 nM | 91%
O=C1c2c(cccc2O[C@H]2CCCC[C@@H]2O)CN1Cc1ccc(Cl)nc1 (relative stereo) [Example 43, 2-((6-chloropyridin-3-yl)methyl)-7-((trans-2-hydroxycyclohexyl)oxy)isoindolin-1-one] | 210 nM | 99%
Cc1nn(C)cc1-c1ccc(CN2Cc3ccnc(OCC4(C)CC4)c3C2=O)c(F)c1 [Example 341, 2-(4-(1,3-dimethyl-1H-pyrazol-4-yl)-2-fluorobenzyl)-4-((1-methylcyclopropyl)methoxy)-1,2-dihydro-3H-pyrrolo[3,4-c]pyridin-3-one] | 63 nM | 93%
Cc1nn(C)cc1-c1ccc(CN2Cc3ccnc(OCC4CCCO4)c3C2=O)cc1 (stereo not drawn) [Example 78, 2-(4-(1,3-dimethyl-1H-pyrazol-4-yl)benzyl)-4-((tetrahydrofuran-2-yl)methoxy)-1,2-dihydro-3H-pyrrolo[3,4-c]pyridin-3-one] | 10 nM | 104%
C[C@@H](O)[C@@H](C)Oc1nccc2c1C(=O)N(Cc1ccc(Cl)cc1)C2 [Example 423, 2-(4-chlorobenzyl)-4-(((2R,3R)-3-hydroxybutan-2-yl)oxy)-1,2-dihydro-3H-pyrrolo[3,4-c]pyridin-3-one] | 90 nM | 96%
O=C1c2c(ccnc2OCC2CCCO2)CN1Cc1ccc(-c2cnn3c2CCCC3)cc1 (stereo not drawn) [Example 296, 4-((tetrahydrofuran-2-yl)methoxy)-2-(4-(4,5,6,7-tetrahydropyrazolo[1,5-a]pyridin-3-yl)benzyl)-1,2-dihydro-3H-pyrrolo[3,4-c]pyridin-3-one] | 12 nM | 92%
Cc1nn(C)cc1-c1ccc(CN2Cc3ccnc(OCC4CCOCC4)c3C2=O)c(F)c1 [Example 262, 2-(4-(1,3-dimethyl-1H-pyrazol-4-yl)-2-fluorobenzyl)-4-((tetrahydro-2H-pyran-4-yl)methoxy)-1,2-dihydro-3H-pyrrolo[3,4-c]pyridin-3-one] | 54 nM | 107%
Cc1nn(C)cc1-c1ccc(CN2Cc3ccnc(O[C@H]4CCCC[C@@H]4O)c3C2=O)cc1 (relative stereo) [Example 267, 2-(4-(1,3-dimethyl-1H-pyrazol-4-yl)benzyl)-4-((trans-2-hydroxycyclohexyl)oxy)-1,2-dihydro-3H-pyrrolo[3,4-c]pyridin-3-one] | 2.1 nM | 94%
O=C1c2c(ccnc2OCC2CCCO2)CN1Cc1ccc(-n2cc(F)cn2)cc1 (stereo not drawn) [Example 234, 2-(4-(4-fluoro-1H-pyrazol-1-yl)benzyl)-4-((tetrahydrofuran-2-yl)methoxy)-1,2-dihydro-3H-pyrrolo[3,4-c]pyridin-3-one] | 38 nM | 91%
CCCc1ccc(Oc2nccc3c2C(=O)N(Cc2ccc(C(N)=O)cc2)C3)c(F)c1 [Example 450, 4-((4-(2-fluoro-4-propylphenoxy)-3-oxo-1,3-dihydro-2H-pyrrolo[3,4-c]pyridin-2-yl)methyl)benzamide] | 10 nM | 102%

Further lines, results first:

EC50 | activity (%) at 10 μM | Structure (SMILES)
110 nM | 91% | Cn1cc(-c2ccc(CN3Cc4cccc(OCCn5cccn5)c4C3=O)cc2)cn1 [Example 19, 2-(4-(1-methyl-1H-pyrazol-4-yl)benzyl)-7-(2-(H-pyrazol-1-yl)ethoxy)isoindolin-1-one]
16 nM | 100% | Cc1cc(-c2ccc(CN3Cc4ncnc(Oc5ccc(C(F)(F)F)cc5F)c4C3=O)cc2)cnn1 [Example 311, 4-(2-fluoro-4-(trifluoromethyl)phenoxy)-6-(4-(6-methylpyridazin-4-yl)benzyl)-6,7-dihydro-5H-pyrrolo[3,4-d]pyrimidin-5-one]
44 nM | 104% | Cn1ccc(-c2ccc(CN3Cc4ccnc(Oc5c(F)cc(F)cc5F)c4C3=O)cc2)n1 [Example 365, 2-(4-(1-methyl-1H-pyrazol-3-yl)benzyl)-4-(2,4,6-trifluorophenoxy)-1H-pyrrolo[3,4-c]pyridin-3(2H)-one]
26 nM | 110% | Cc1nn(C)cc1-c1ccc(CN2Cc3ccnc(Oc4c(F)cccc4Cl)c3C2=O)c(F)c1 [Example 280, 4-(2-chloro-6-fluorophenoxy)-2-(4-(1,3-dimethyl-1H-pyrazol-4-yl)-2-fluorobenzyl)-1,2-dihydro-3H-pyrrolo[3,4-c]pyridin-3-one]
19 nM | 99% | Cc1cc(-c2ccc(CN3Cc4ccnc(Oc5ccc(C(C)(C)F)cc5F)c4C3=O)cc2)cnn1 [Example 410, 4-(2-fluoro-4-(2-fluoropropan-2-yl)phenoxy)-2-(4-(6-methylpyridazin-4-yl)benzyl)-1,2-dihydro-3H-pyrrolo[3,4-c]pyridin-3-one]
9.3 nM | 92% | Cn1cc(-c2ccc(CN3Cc4ncnc(Oc5ccc(C(F)F)cc5F)c4C3=O)cc2)cn1 [Example 307, 4-(4-(difluoromethyl)-2-fluorophenoxy)-6-(4-(1-methyl-1H-pyrazol-4-yl)benzyl)-6,7-dihydro-5H-pyrrolo[3,4-d]pyrimidin-5-one]
8.7 nM | 105% | Cn1cc(-c2ccc(CN3Cc4cccc(O[C@H]5CCC(F)(F)C[C@@H]5O)c4C3=O)cc2)cn1 (relative stereo) [Example 2, 7-((trans-4,4-difluoro-2-hydroxycyclohexyl)oxy)-2-(4-(1-methyl-1H-pyrazol-4-yl)benzyl)isoindolin-1-one]
5.6 nM | 99% | Cn1cc(-c2ccc(CN3Cc4ccnc(Oc5ccc(C(C)(C)O)cc5F)c4C3=O)cc2)cn1 [Example 408, 4-(2-fluoro-4-(2-hydroxypropan-2-yl)phenoxy)-2-(4-(1-methyl-1H-pyrazol-4-yl)benzyl)-1,2-dihydro-3H-pyrrolo[3,4-c]pyridin-3-one]
70 nM | 99% | CC(C)n1cc(-c2ccc(CN3Cc4cccc(Oc5c(F)cc(C#N)cc5F)c4C3=O)cn2)cn1 [Example 382, 3,5-difluoro-4-((2-((6-(1-isopropyl-1H-pyrazol-4-yl)pyridin-3-yl)methyl)-3-oxo-2,3-dihydro-1H-isoindol-4-yl)oxy)benzonitrile]
17 nM | 96% | NC(=O)c1ccc(CN2Cc3cccc(Oc4ccc(C(F)(F)F)cc4F)c3C2=O)cc1 [Example 460, 4-((7-(2-fluoro-4-(trifluoromethyl)phenoxy)-1-oxo-1,3-dihydro-2H-isoindol-2-yl)methyl)benzamide]
22 nM | 102% | Cn1ccc(-c2ccc(CN3Cc4ccnc(Oc5ccc(C(F)F)cc5F)c4C3=O)cc2)n1 [Example 380, 4-(4-(difluoromethyl)-2-fluorophenoxy)-2-(4-(1-methyl-1H-pyrazol-3-yl)benzyl)-1,2-dihydro-3H-pyrrolo[3,4-c]pyridin-3-one]
31 nM | 86% | N#Cc1cc(F)c(Oc2cccc3c2C(=O)N(Cc2ccc(-n4cccn4)cc2)C3)c(F)c1 [Example 364, 3,5-difluoro-4-((3-oxo-2-(4-(1H-pyrazol-1-yl)benzyl)-2,3-dihydro-1H-isoindol-4-yl)oxy)benzonitrile]
